From ChEMBL document CHEMBL3044684, “Synthesis and cytotoxic activity of novel benzopyrano[3,2-c]chromene-6,8-dione derivatives” (Med Chem Res, 2011)

Assays:
Format in all cases: functional, cell-based
Raji = assay: Cytotoxicity against Homo sapiens (human) Raji cells after 96 hr by MTT assay
MCF7 = assay: Cytotoxicity against Homo sapiens (human) MCF7 cells after 96 hr by MTT assay; conditions: MCF7, 96 h
[1] = Cytotoxicity against Homo sapiens (human) LS180 cells after 96 hr by MTT assay; conditions: LS180, 96 h
HeLa = assay: Cytotoxicity against Homo sapiens (human) HeLa cells after 96 hr by MTT assay

Compound | IC16 (Raji) [µM] | IC50 (Raji) [µM] | IC16 (MCF7) [µM] | IC50 (MCF7) [µM] | IC16 [1] [µM] | IC50 [1] [µM] | IC16 (HeLa) [µM] | IC50 (HeLa) [µM]
COc1ccc(C2C3=C(CCCC3=O)Oc3c2c(=O)oc2ccccc32)cc1 (stereo not drawn) | 33.1 | > 100 | 35.9 | 76.3 | 100 | > 100 | 48.7 | 97.9
O=C1CCCC2=C1C(c1ccccc1[N+](=O)[O-])c1c(c3ccccc3oc1=O)O2 (stereo not drawn) | 14.9 | 54.8 | 28 | 59.5 | > 100 | > 100 | 18.1 | > 100
O=C1CCCC2=C1C(c1cccc([N+](=O)[O-])c1)c1c(c3ccccc3oc1=O)O2 (stereo not drawn) | 55.8 | > 100 | 23.1 | 80.3 | 60.9 | > 100 | 26.2 | 63.1
O=C1CCCC2=C1C(c1ccc(Br)cc1)c1c(c3ccccc3oc1=O)O2 (stereo not drawn) | 22.4 | 82.4 | 15.7 | 49.3 | > 100 | > 100 | > 100 | > 100
O=C1CCCC2=C1C(c1ccc(Cl)cc1)c1c(c3ccccc3oc1=O)O2 (stereo not drawn) | 59 | > 100 | 54.7 | > 100 | > 100 | > 100 | 17.9 | 55.8
O=C1CCCC2=C1C(c1ccc([N+](=O)[O-])cc1)c1c(c3ccccc3oc1=O)O2 (stereo not drawn) | 47.7 | > 100 | 26 | 61.7 | 32.6 | 75.7 | > 100 | > 100
Cc1ccc(C2C3=C(CCCC3=O)Oc3c2c(=O)oc2ccccc32)cc1 (stereo not drawn) | 8.5 | 78.9 | 49.2 | > 100 | 74.2 | > 100 | 38.8 | > 100
Cc1ccccc1C1C2=C(CCCC2=O)Oc2c1c(=O)oc1ccccc21 (stereo not drawn) | 26.4 | 79.7 | 30.9 | > 100 | 53.8 | > 100 | 42.9 | > 100
COc1cccc(C2C3=C(CCCC3=O)Oc3c2c(=O)oc2ccccc32)c1 (stereo not drawn) | 13.1 | 49.2 | 22.2 | 58.6 | 48.9 | 99.7 | 25.3 | 89.9
Cc1cccc(C2C3=C(CCCC3=O)Oc3c2c(=O)oc2ccccc32)c1 (stereo not drawn) | 26.7 | 72.7 | 42.8 | > 100 | 47 | > 100 | 41.7 | > 100
O=C1CCCC2=C1C(c1cccc(Br)c1)c1c(c3ccccc3oc1=O)O2 (stereo not drawn) | 11.3 | 49.3 | > 50 | > 50 | 35.1 | 83.8 | 21.9 | 61.6
COc1ccccc1C1C2=C(CCCC2=O)Oc2c1c(=O)oc1ccccc21 (stereo not drawn) | 30.3 | > 100 | > 100 | > 100 | 52.1 | > 100 | 37.6 | 74.3
O=C1CCCC2=C1C(c1ccccc1Br)c1c(c3ccccc3oc1=O)O2 (stereo not drawn) | > 100 | > 100 | > 100 | > 100 | > 100 | > 100 | > 100 | > 100
COc1cccc2c1C(=O)c1c(O)c3c(c(O)c1C2=O)C[C@@](O)(C(=O)CO)C[C@@H]3O[C@H]1C[C@H](N)[C@H](O)[C@H](C)O1 [DOXORUBICIN] | 0.012 | 0.039 | 0.051 | 0.211 | 0.03 | 0.13 | 0.015 | 0.053
O=C1CCCC2=C1C(c1ccccc1Cl)c1c(c3ccccc3oc1=O)O2 (stereo not drawn) | > 25 | > 25 | > 25 | > 25 | > 25 | > 25 | > 25 | > 25
O=C1CCCC2=C1C(c1cccc(Cl)c1)c1c(c3ccccc3oc1=O)O2 (stereo not drawn) | 23.9 | > 50 | > 50 | > 50 | > 50 | > 50 | > 50 | > 50
